{"source": "ChEMBL document CHEMBL4219204", "about": "“Structure-based design and discovery of potent and selective KDM5 inhibitors” (Bioorg Med Chem Lett, 2018)", "key": {"[1]": {"experiment": "Inhibition of CYP450 (unknown origin)", "format": "ADME", "conditions": "human; call rule not given here"}, "[2]": {"experiment": "Oral bioavailability in CD-1 mouse at 10 mg/kg", "format": "ADME, organism-based", "conditions": "in vivo"}, "[3]": {"target": "T1, Lysine-specific demethylase 4D (Homo sapiens, UniProt Q6B0I6)", "T1 sequence (Q6B0I6 whole entry)": "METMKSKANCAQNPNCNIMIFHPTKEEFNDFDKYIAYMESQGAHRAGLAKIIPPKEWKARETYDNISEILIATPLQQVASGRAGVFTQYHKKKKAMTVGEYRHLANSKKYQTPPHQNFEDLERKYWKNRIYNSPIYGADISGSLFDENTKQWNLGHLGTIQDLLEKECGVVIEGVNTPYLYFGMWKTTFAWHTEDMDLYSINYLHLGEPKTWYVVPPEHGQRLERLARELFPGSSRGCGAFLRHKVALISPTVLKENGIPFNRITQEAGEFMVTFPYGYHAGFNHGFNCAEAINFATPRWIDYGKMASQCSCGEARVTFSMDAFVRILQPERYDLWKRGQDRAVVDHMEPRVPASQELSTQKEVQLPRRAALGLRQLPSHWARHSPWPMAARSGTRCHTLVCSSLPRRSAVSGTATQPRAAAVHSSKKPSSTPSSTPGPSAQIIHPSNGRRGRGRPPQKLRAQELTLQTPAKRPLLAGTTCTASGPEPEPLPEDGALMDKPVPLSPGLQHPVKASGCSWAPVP", "experiment": "Inhibition of KDM4D (unknown origin)"}, "[4]": {"target": "T2, Lysine-specific demethylase 2B (Homo sapiens, UniProt Q8NHM5)", "T2 sequence (Q8NHM5 whole entry)": "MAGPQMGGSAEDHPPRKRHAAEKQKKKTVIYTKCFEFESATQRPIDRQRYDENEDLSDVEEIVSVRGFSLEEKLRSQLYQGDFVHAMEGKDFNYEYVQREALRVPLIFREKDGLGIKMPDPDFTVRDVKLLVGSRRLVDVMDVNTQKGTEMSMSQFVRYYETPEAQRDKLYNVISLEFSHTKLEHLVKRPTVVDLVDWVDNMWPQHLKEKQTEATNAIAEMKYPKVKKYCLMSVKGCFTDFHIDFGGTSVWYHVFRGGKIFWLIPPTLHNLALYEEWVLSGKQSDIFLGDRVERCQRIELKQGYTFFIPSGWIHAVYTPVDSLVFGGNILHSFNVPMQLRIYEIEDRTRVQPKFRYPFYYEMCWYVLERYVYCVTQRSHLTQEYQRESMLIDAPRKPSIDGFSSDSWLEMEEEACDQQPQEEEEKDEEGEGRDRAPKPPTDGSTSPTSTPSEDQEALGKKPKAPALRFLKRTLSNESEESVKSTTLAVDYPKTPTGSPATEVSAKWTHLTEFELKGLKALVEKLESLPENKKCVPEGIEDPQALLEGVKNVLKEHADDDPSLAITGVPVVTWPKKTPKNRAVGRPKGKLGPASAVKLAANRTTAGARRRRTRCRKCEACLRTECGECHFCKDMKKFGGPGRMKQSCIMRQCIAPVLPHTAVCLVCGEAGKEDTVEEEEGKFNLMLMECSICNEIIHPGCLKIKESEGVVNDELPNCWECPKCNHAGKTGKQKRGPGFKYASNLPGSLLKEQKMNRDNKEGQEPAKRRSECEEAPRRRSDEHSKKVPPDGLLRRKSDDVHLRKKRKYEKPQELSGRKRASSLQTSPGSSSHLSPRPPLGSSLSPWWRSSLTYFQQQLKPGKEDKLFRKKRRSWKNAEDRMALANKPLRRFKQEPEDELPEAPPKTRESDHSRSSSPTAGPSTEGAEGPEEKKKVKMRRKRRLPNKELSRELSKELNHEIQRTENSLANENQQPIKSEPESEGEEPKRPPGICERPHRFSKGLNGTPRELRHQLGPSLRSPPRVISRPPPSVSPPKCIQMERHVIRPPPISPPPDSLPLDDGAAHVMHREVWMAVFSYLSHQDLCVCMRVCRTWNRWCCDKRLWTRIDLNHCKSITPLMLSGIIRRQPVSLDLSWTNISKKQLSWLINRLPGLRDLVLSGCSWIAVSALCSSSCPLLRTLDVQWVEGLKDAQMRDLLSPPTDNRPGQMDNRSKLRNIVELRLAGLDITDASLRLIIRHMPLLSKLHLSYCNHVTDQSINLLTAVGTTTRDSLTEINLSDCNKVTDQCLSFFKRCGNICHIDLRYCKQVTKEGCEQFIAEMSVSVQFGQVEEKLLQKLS", "experiment": "Inhibition of KDM2B (unknown origin)"}, "[5]": {"target": "T3, Lysine-specific demethylase 2A (Homo sapiens, UniProt Q9Y2K7)", "T3 sequence (Q9Y2K7 whole entry)": "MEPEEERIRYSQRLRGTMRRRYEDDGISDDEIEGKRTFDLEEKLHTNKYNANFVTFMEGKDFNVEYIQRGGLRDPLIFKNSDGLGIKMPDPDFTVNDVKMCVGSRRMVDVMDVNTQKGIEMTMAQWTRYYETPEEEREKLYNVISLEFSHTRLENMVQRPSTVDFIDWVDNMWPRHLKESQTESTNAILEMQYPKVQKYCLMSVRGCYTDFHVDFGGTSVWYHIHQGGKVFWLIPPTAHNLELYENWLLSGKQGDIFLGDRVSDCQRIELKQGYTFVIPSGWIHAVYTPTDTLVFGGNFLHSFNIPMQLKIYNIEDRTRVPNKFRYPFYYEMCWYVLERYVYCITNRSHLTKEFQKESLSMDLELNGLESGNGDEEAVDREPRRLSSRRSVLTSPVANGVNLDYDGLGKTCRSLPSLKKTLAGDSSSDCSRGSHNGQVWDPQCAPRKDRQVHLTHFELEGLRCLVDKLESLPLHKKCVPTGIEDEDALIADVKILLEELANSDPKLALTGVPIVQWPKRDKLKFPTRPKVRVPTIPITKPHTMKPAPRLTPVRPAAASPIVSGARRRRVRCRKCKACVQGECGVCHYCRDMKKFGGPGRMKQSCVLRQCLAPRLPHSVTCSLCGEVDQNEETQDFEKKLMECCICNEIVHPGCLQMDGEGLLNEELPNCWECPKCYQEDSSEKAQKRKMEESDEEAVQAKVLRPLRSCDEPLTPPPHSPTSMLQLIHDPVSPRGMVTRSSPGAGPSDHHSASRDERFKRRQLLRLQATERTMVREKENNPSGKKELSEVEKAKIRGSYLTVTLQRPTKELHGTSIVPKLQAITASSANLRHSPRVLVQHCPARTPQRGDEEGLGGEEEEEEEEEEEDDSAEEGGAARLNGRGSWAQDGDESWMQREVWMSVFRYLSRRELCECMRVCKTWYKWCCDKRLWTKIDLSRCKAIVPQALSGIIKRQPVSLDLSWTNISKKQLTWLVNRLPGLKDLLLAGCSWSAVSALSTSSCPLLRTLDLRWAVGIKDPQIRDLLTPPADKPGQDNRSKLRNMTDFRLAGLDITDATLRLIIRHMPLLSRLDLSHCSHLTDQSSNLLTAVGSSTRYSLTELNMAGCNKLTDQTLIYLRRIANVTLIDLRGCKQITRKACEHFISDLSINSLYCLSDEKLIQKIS", "experiment": "Inhibition of KDM2A (unknown origin)"}}}
{"molecule": "Cc1cc(Cl)ccc1COc1ccnn1-c1cc(C(=O)O)ccn1", "values": [{"measurement": "inhibition (INH)", "setting": "[1]", "result": "Not Active"}, {"measurement": "bioavailability", "setting": "[2]", "result": 55, "unit": "%"}, {"measurement": "IC50", "setting": "[3]", "result": 110, "unit": "nM"}, {"measurement": "IC50", "setting": "[4]", "result": 630, "unit": "nM"}, {"measurement": "IC50", "setting": "[5]", "result": 820, "unit": "nM"}]}
